Data set [1] addresses T1, human GLP-1 receptor (Homo sapiens, UniProt P43220).
T1 construct: expressed in transfected cells
The data set can be described thus: GLP-1 receptor potency assay (cAMP ALPHASCREEN, HEK293 cells stably expressing GLP-1 R). In kind it is cell-based. To be noted: cAMP response, HEK293 cells expressing human GLP-1 R. In a few lines: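 Clonal HEK293 line stably transfected with human GLP-1R (G418-selected) was treated with test compounds and the cAMP response quantified by ALPHASCREEN. Signals were normalized to positive control and vehicle, with EC50 and maximal response taken from concentration-response curves.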

Data set [2] is described as follows: Chemical stability (RP-HPLC normalized purity after incubation at 40° C.). In kind it is physicochemical. To be noted: 14-day incubation, 0.2 mg/ml, normalized purity (area-%). In a few lines:
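Peptide at 0.2 mg/ml final in water adjusted to pH 6, 7, 7.5 or 9, incubated at 40° C for 14 days. Purity measured as main-peak area-% by C18 RP-HPLC (acetonitrile/TFA/water gradient, UV 220 nm) and normalized to T=0 set at 100 for each pH.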

The structures appear in SMILES notation. Where a SMILES comes first, the peptide text is derived from it.

T1 sequence (P43220 24-463): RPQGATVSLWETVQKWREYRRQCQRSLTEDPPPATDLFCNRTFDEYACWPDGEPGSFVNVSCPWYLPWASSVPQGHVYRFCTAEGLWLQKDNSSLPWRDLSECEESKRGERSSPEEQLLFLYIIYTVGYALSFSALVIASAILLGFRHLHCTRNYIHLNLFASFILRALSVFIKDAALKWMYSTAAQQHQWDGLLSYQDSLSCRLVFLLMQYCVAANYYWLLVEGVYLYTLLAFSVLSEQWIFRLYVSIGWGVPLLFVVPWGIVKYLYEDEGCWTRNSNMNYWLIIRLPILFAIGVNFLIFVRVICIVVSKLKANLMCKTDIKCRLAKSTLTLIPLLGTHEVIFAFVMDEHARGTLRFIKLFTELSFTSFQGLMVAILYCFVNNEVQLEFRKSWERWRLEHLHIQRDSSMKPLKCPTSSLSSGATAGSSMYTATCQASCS

Usually EC50 stands for the concentration needed to bring the measured effect to its halfway point. In the case of `CC[C@H](C)[C@H](NC(=O)[C@H](Cc1ccccc1)NC(=O)[C@H](CC(=O)O)NC(=O)[C@H](CCCNC(=N)N)NC(=O)[C@H](C)NC(=O)[C@H](C)NC(=O)[C@H](CCC(N)=O)NC(=O)[C@H](CCCCNC(=O)CC[C@H](NC(=O)CCCCCCCCCCCCCCCCC(=O)O)C(=O)O)NC(=O)[C@H](CC(=O)O)NC(=O)[C@H](CC(C)C)NC(=O)[C@@H](NC(=O)[C@@H](NC(=O)[C@H](C)NC(=O)[C@H](CC(C)C)NC(=O)[C@H](CCC(=O)O)NC(=O)[C@H](CO)NC(=O)[C@@H](NC(=O)[C@H](Cc1ccccc1)NC(=O)[C@H](CO)NC(=O)CNC(=O)[C@H](CCC(=O)O)NC(=O)C(C)(C)NC(=O)[C@@H](N)Cc1c[nH]cn1)[C@@H](C)O)[C@@H](C)O)[C@@H](C)CC)C(=O)N[C@@H](C)C(=O)N[C@@H](Cc1c[nH]c2ccccc12)C(=O)N[C@@H](CC(C)C)C(=O)N[C@H](C(=O)N[C@@H](CCCCN)C(=O)N[C@@H](Cc1c[nH]cn1)C(=O)N[C@@H](CCCCN)C(=O)N[C@H](C(=O)N[C@H](C(=O)N[C@@H](CC(=O)O)C(=O)O)[C@@H](C)O)[C@@H](C)CC)[C@@H](C)CC` [Compound 29] (HELM PEPTIDE1{H.[Aib].E.G.S.F.T.S.E.L.A.T.I.L.D.K.Q.A.A.R.D.F.I.A.W.L.I.K.H.K.I.T.D}|PEPTIDE2{[O=C(O)CCCCCCCCCCCCCCCCC(=O)[*:2]].[gGlu]}$PEPTIDE1,PEPTIDE2,16:R3-2:R2$$$V2.0), the EC50 in data set [1] came out at 0.31 nM. For the same molecule, in data set [2] (pH 6, 40° C.), the “pH 6 normalized stability” value is “A (>90% normalised stability)”. Further, in data set [2] (pH 7, 40° C.), the “pH 7 normalized stability” value is reported as “B (>80% stability)”.
